Assay results from US20110081298A1, “RATIOMETRIC BIOLUMINESCENT SENSOR FOR IMAGINING OXIDATIVE STRESS” (priority 2009, published 2011).
“Also recorded” adds a separate entry of the source. Residues, ends and D or L forms follow the SMILES beside them. *: point of attachment. Cbz = O=C(OCc1ccccc1)*; CH2F = FC*

Key:
HeLa-fR cells [1] = assay: RLuc8/fLuc bioluminescence and RLuc8:fLuc ratio in HeLa-fR cells (Dual-Glo); type: cell-based, human; settings: for RLuc8:fLuc ratio of STS-treated cells with inhibitor/scavenger: inhibitor 1 hour before 10 μM STS for 24 hours, working concentrations of Table 7; for RLuc8:fLuc ratio, increasing doses of inhibitor/scavenger: pretreated 1 hour prior to 10 μM STS, 24 hr; for RLuc8:fLuc bioluminescent ratio: HeLa-fR cells treated with the stress/cell death inducer alone
Description: To induce cellular stress, HeLa cells were treated with Staurosporine (STS), hydrogen peroxide, or hypoxanthine and xanthine oxidase for 0 to 24 hours at concentrations indicated in Table 7. Stressed and unstressed cells were also incubated with inhibitors that target various intracellular protein degradation/modification pathways. The specific compounds/proteins that were utilized as inhibitors and the respective final working concentrations are also listed in Table 7. Inhibitors were added to cells 1-hr prior to adding inducers of cellular stress and left in the media for the duration of the treatment. Analogous controls were conducted in the absence of stress inducers.
(§1) To induce caspase dependent PCD, cells were treated with staurosporine (STS), Doxorubicin (DOX), or camptothecin (CPT) (Sigma, St. Louis, Mo.) in complete medium at indicated concentrations and time points. To induce caspase-independent PCD, cells were treated with sodium selenite (SSe, MP Biomedicals, Solon, Ohio) or resveratrol (Res, Enzo Life Sciences, Plymouth Meeting, Pa.) in complete medium at indicated concentrations and time points. In studies where allopurinol (Allo, MP Biomedicals) is used as an inhibitor, it was added at a final concentration of 100 μM to cells in complete medium for 1 hour prior to the addition of the death-inducing drugs and remained in the medium throughout the study.
(§2) Unless otherwise noted, bioluminescence assays were performed 24 hours after plating 10,000 HeLa-fR cells/well in a white-walled 96 well tissue culture plate (BD Biosciences, Franklin Lakes, N.J., USA).

293T/17-fR cells = assay: RLuc8:fLuc ratio in 293T/17-fR cells (Dual-Glo); type: cell-based, human; settings: STS-treated 293T/17 cells
MCF7-fR cells = assay: RLuc8:fLuc ratio in MCF7-fR cells (Dual-Glo); type: cell-based, human
Description: as §1, §2

HeLa-fR cells [2] = assay: Western blot of fLuc and RLuc8 protein, HeLa-fR cells; type: cell-based, human; settings: STS-treated cells pretreated with the inhibitor/scavenger
Description: Following indicated culture conditions, HeLa-fR cells were washed 3 times with 1×PBS (pH7.4). Proteins were extracted using RIPA extraction buffer (50 mM Tris HCL, pH 7.4, 1% Triton X-100, 0.25% Na-deoxycholate, 150 mM NaCl, 1 mM EDTA and a Complete Mini Protease Inhibitor Cocktail Tablet (Roche)) at 4° C. for 30 minutes with constant agitation. Total protein concentrations were measured using a BCA assay (Pierce, Rockford, Ill., USA). […] Proteins separated by electrophoresis were transferred to nitrocellulose membranes in 1× Transfer Buffer (Bio-Rad) at 15V for 30 minutes. Membranes were blocked in Blocking Buffer for Fluorescent Western Blotting (Rockland Immunochemicals, Gilbertsville, Pa., USA) for 60 minutes. The membranes were incubated with anti-fLuc (Sigma), anti-rLuc (Millipore, Billerica, Mass.) or anti-β-actin (Abcam, Cambridge, Mass.) primary antibodies in blocking buffer overnight. […] The fluorescent signal from the membranes was imaged using the Odyssey Infrared Imaging System (Li-Cor Biosciences, Lincoln, Nebr., USA).

intracellular H2O2 [3] = assay: Intracellular H2O2 by CM-H2DCFDA, HeLa-fR cells; type: cell-based, human; settings: for intracellular H2O2 (CM-H2DCFDA fluorescence) with inhibitor/scavenger: STS-treated HeLa-fR cells
Description: Catalase and Allopurinol: HeLa-fR cells were plated at a density of 120,000 cells per well of a 12 well tissue culture plate (BD Biosciences). 24 hours later, the cells were incubated with 10 μM CM-H2DCFDA (Invitrogen) for 30 minutes at 37° C. Cells were then treated with PBS (pH 7.4), 50 U/mL catalase or 100 μM allopurinol for one hour. PBS (pH 7.4) or 10 μM STS was subsequently added to the cells, and all compounds remained on the cells for 24 hours. Intracellular H2O2 levels were determined by subjecting the cells to flow cytometry using a Guava EasyCyte (Guava Technologies). Analysis of flow cytometry data was accomplished using FlowJo software (Treestar).

HeLa-fR cells [4] = assay: TUNEL assay for DNA fragmentation, HeLa-fR cells; type: cell-based, human
Description: DNA Fragmentation: PCD was induced (as described above) 24 hours after plating 300,000 cells/well in 6 well tissue culture plates (BD Biosciences). After indicated treatment times, TUNEL assays for DNA fragmentation were performed using the TUNEL/ApoBRDU assay kit (Invitrogen) according to the manufacturer's protocol. Percent DNA fragmentation was determined using flow cytometry on a Guava EasyCyte flow cytometer (Guava Technologies, Hayward, Calif.). Analysis of flow cytometry data was performed using FlowJo software (Treestar, Ashland, Oreg.).

intracellular H2O2 [5] = assay: Intracellular H2O2 by CM-H2DCFDA, MCF7-fR cells; type: cell-based, human
HeLa-fR tumor xenografts = assay: Bioluminescence imaging of HeLa-fR tumor xenografts in nude mice; type: in vivo; settings: intratumoral, 24 hours
Description: Five week old female nude mice (Charles River Laboratories International LLC, Wilmington, Mass.) were obtained and given free access to food and water. […] For tumor induction, 2.5×10^6 HeLa-fR cells were resuspended in PBS (pH 7.4) and subcutaneously implanted in the lower right flank of lightly anesthetized mice (1% isoflurane/oxygen mixture). Once the tumors reached ˜1 cm in diameter, each group was imaged prior to any inhibitor/drug treatment. Briefly, the animals were i.p. injected with 200 μL of sterile 15 mg/mL luciferin (Biosynth, Itasca, Ill.) in PBS (pH 7.4) and imaged using an IVIS Lumina II (Caliper Life Sciences, Hopkinton, Mass.) under anesthesia (2.5% isoflurane/oxygen mixture). The substrate was allowed to clear for 3 hours before the animals received an i.v. injection of 100 μL of 500 μg/mL sterile coelenterazine (NanoLight, Pinetop, Ariz.) in a 20/20/60 mixture of USP grade ethanol/propylene glycol/PBS and imaged using an IVIS Lumina II under anesthesia (2.5% isoflurane/oxygen mixture). Immediately following the second imaging session animals were divided into 4 groups (PBS/PBS, PBS/STS, Allo/PBS, Allo/STS) and the inhibitor (1 mM Allopurinol) or control (PBS, pH 7.4) was intratumorally injected. After 1 hour, the cell death inducer (500 μM STS) or control (PBS, pH 7.4) was intratumorally injected. All intratumoral injections were of a volume of 25 μL. 24 hours later, the animals were imaged in the same manner as stated previously.
All image analysis was performed using Living Image Software (Caliper Life Sciences). Images were first background subtracted (treating the animal body as the background) and automatic (5% threshold) ROIs were generated around each tumor. Bioluminescent counts were recorded and used in the ratio calculations. For each group, data was normalized to the day 1 ratio values.

caspases 3 and 7 = assay: Caspase-Glo 3/7 assay, HeLa-fR cells; type: cell-based, human
Description: Caspase Activity: PCD was induced (as described above) 24 hours after plating 10,000 cells/well in white-walled 96 well tissue culture plates (BD Biosciences). After indicated treatment times, the Caspase 3/7-Glo Assay (Promega) was performed according to the manufacturer's protocol and bioluminescence measurements were obtained from and Infinite 200 plate reader (Tecan). All values were normalized to controls (i.e. pre-treatment values).

## CC(C)[C@H](NC(=O)OCc1ccccc1)C(=O)N[C@H](C=O)Cc1ccccc1 [Calpain Inhibitor III] (Cbz-Val-Phe-aldehyde)
HeLa-fR cells [1]; HeLa-fR, no STS
  RLuc8:fLuc ratio, inhibitor on untreated (−STS) cells: increase in the Rluc8:fLuc ratio
HeLa-fR cells [1]
  RLuc8:fLuc ratio of STS-treated cells with inhibitor/scavenger: none of these inhibitors significantly affected

## CC(C)C[C@@H](C=O)NC(=O)[C@H](CC(C)C)NC(=O)[C@H](CC(C)C)NC(=O)OCc1ccccc1 [MG-132] (Cbz-Leu-Leu-Leu-aldehyde)
HeLa-fR cells [1]
  RLuc8:fLuc ratio of STS-treated cells with inhibitor/scavenger: increase in the RLuc8:fLuc ratio

## CC1(C)CC(O)CC(C)(C)N1[O] [TEMPOL]
HeLa-fR cells [1]
  RLuc8:fLuc ratio of STS-treated cells with inhibitor/scavenger: none of the superoxide scavengers significantly reduced

## NCCNCCNCCNCCN [TEPA, tetraethylenepentamine]
HeLa-fR cells [1]
  RLuc8:fLuc ratio of STS-treated cells with inhibitor/scavenger: did not reduce the Rluc8:fLuc ratio; also recorded: slight increase in Rluc8:fLuc ratio

## O=S(=O)(O)c1cc(O)c(O)c(S(=O)(=O)O)c1 [Tiron]
HeLa-fR cells [1]
  RLuc8:fLuc ratio of STS-treated cells with inhibitor/scavenger: none of the superoxide scavengers significantly reduced

## Oc1ncnc2[nH]ncc12 [allopurinol]
293T/17-fR cells
  protective effect on fLuc: protective effect of allopurinol on fLuc is also evident
MCF7-fR cells; MCF7-fR
  RLuc8:fLuc ratio, allopurinol prior to resveratrol vs resveratrol alone: significantly reduced (p<0.01)
MCF7-fR cells; STS-treated MCF7 cells
  protective effect on fLuc: protective effect of allopurinol on fLuc is also evident
HeLa-fR cells [2]
  fLuc protein level vs STS without inhibitor: higher levels of fLuc protein
Intracellular H2O2 [3]; HeLa-fR
  intracellular H2O2 levels, allopurinol prior to SSe vs SSe alone: decreased significantly (p<0.05)
Intracellular H2O2 [3]
  intracellular H2O2 (CM-H2DCFDA fluorescence) with inhibitor/scavenger: decrease in CM-H2DCFDA fluorescence
HeLa-fR cells [1]; HeLa cells treated with camptothecin and doxorubicin
  protective effect on fLuc: protective effect of allopurinol on fLuc is also evident
HeLa-fR cells [1]; HeLa-fR
  RLuc8:fLuc ratio, allopurinol prior to SSe vs SSe alone: decreased significantly (p<0.05)
HeLa-fR cells [1]
  RLuc8:fLuc ratio of STS-treated cells with inhibitor/scavenger: significant reduction (p<0.01)
  RLuc8:fLuc ratio, increasing doses of inhibitor/scavenger: reducing the Rluc8:fLuc ratio, in a dose-dependent manner
HeLa-fR cells [4]; 100 μM allopurinol 1 hour prior to 55 μM SSe for 24 hours
  DNA fragmentation levels vs PBS-pretreated controls: remained unchanged
HeLa-fR cells [4]; HeLa-fR pretreated with allopurinol prior to STS
  protection against cell death (TUNEL): did not provide protection against cell death
Intracellular H2O2 [5]
  H2O2 levels, allopurinol prior to resveratrol vs resveratrol alone: significantly reduced (p<0.01)
HeLa-fR tumor xenografts
  RLuc8:fLuc ratio, Allo/PBS vs PBS/PBS groups: decreased slightly
HeLa-fR tumor xenografts; inhibitor 1 hour before STS
  RLuc8:fLuc ratio, Allo/STS vs PBS/STS groups: significant reduction in the RLuc8:fLuc ratio (p<0.05)

## Cl.N [ammonium chloride]
HeLa-fR cells [1]
  RLuc8:fLuc ratio of STS-treated cells with inhibitor/scavenger: none of these inhibitors significantly affected

## CC(=O)Oc1ccccc1C(=O)O [aspirin, acetylsalicylic acid]
HeLa-fR cells [2]
  fLuc protein level vs STS without inhibitor: higher levels of fLuc protein
Intracellular H2O2 [3]
  intracellular H2O2 (CM-H2DCFDA fluorescence) with inhibitor/scavenger: decrease in CM-H2DCFDA fluorescence
HeLa-fR cells [1]
  RLuc8:fLuc ratio of STS-treated cells with inhibitor/scavenger: significant reduction (p<0.01)
  RLuc8:fLuc ratio, increasing doses of inhibitor/scavenger: reducing the Rluc8:fLuc ratio, in a dose-dependent manner

## CC[C@@]1(O)C(=O)OCc2c1cc1n(c2=O)Cc2cc3ccccc3nc2-1 [camptothecin]
HeLa-fR cells [1]
  RLuc8:fLuc bioluminescent ratio: dose- and time-dependent increase
Caspases 3 and 7
  caspase activity / caspase dependence of cell death: caspase-dependent

## COc1cccc2c1C(=O)c1c(O)c3c(c(O)c1C2=O)C[C@@](O)(C(=O)CO)C[C@@H]3O[C@H]1C[C@H](N)[C@H](O)[C@H](C)O1 [doxorubicin, Doxorubicin]
HeLa-fR cells [1]
  RLuc8:fLuc bioluminescent ratio: dose- and time-dependent increase
Caspases 3 and 7
  caspase activity / caspase dependence of cell death: caspase-dependent

## CC[C@H](C)[C@H](NC(=O)[C@H]([C@@H](C)CC)N(C)C(C)=O)C(=O)N[C@H](C(=O)N[C@@H](CC(C)C)C(=O)[C@@]1(C)CO1)[C@@H](C)O [epoxomicin]
HeLa-fR cells [1]
  RLuc8:fLuc ratio of STS-treated cells with inhibitor/scavenger: increase in the RLuc8:fLuc ratio

## CC(=O)N[C@@H](CSC(=O)[C@]1([C@@H](O)C(C)C)NC(=O)[C@H](C)[C@@H]1O)C(=O)O [lactacystin]
HeLa-fR cells [1]
  RLuc8:fLuc ratio of STS-treated cells with inhibitor/scavenger: increase in the RLuc8:fLuc ratio

## OC[C@@H](O)[C@@H](O)[C@H](O)[C@H](O)CO [mannitol]
HeLa-fR cells [1]
  RLuc8:fLuc ratio of STS-treated cells with inhibitor/scavenger: did not reduce the Rluc8:fLuc ratio

## COC(=O)C[C@H](NC(=O)[C@H](C)NC(=O)[C@@H](NC(=O)OCc1ccccc1)C(C)C)C(=O)CF [z-vad-fmk] (Cbz-Val-Ala-Asp(OMe)-CH2F)
HeLa-fR cells [1]
  RLuc8:fLuc ratio of STS-treated cells with inhibitor/scavenger: none of these inhibitors significantly affected

## MnTMPyP
HeLa-fR cells [1]
  RLuc8:fLuc ratio of STS-treated cells with inhibitor/scavenger: none of the superoxide scavengers significantly reduced

## Pepstatin A
HeLa-fR cells [1]
  RLuc8:fLuc ratio of STS-treated cells with inhibitor/scavenger: none of these inhibitors significantly affected

## catalase
HeLa-fR cells [2]
  fLuc protein level vs STS without inhibitor: higher levels of fLuc protein
Intracellular H2O2 [3]
  intracellular H2O2 (CM-H2DCFDA fluorescence) with inhibitor/scavenger: decrease in CM-H2DCFDA fluorescence
HeLa-fR cells [1]
  RLuc8:fLuc ratio of STS-treated cells with inhibitor/scavenger: significant reduction (p<0.01)
  RLuc8:fLuc ratio, increasing doses of inhibitor/scavenger: reducing the Rluc8:fLuc ratio, in a dose-dependent manner
